In patent US20220226484A1, “THERAPEUTIC PEPTIDES” (COHBAR, INC., priority 2019, published 2022):
Non-standard residues stand in square brackets, D forms with d. Primed or numbered codes have the meaning given here. No end group written: not given here. PEG12′ = not defined here

Columns and labels:
[1] = system: bleomycin-induced lung fibrosis in male C57BL/6 mice; assay: Therapeutic mouse model of idiopathic pulmonary fibrosis (bleomycin); format: in vivo; settings: peptide 5 mg/kg/day intraperitoneal, nintedanib 60 mg/kg/day PO
Source text: The effect of the peptides on the progression of established lung fibrosis can be assessed by monitoring lung fibrosis, lung weight, inflammatory cells in bronchoalveolar lavage fluid (BALF), soluble collagen in BALF, and body weight change in a therapeutic mouse model of idiopathic pulmonary fibrosis. Lung fibrosis was induced in lungs of male C57BL/6 mice between the ages of 6 to 8 weeks by nasophayngeal administration of bleomycin (1.5 U/kg using bleomycin clinical formulation diluted in PBS). A control group of animals were administered saline by the nasopharyngeal route (no-bleomycin control group). After one week, bleomycin-treated animals were randomized to treatment groups (N=10 per group) by body weight and treated daily with vehicle control, nintedanib positive control (60 mg/kg/day PO) or peptide (5 mg/kg/day by intraperitoneal injection). After 14 days of treatment (Day 21), lungs were removed and weighed. The post-caval lobe was separated and snap frozen. The lungs were flushed with Hanks Buffer and bronchoalveolar lavage fluid (BALF) was harvested from each animal. Total BALF leukocyte were counted. Slides were prepared from the remaining BALF leukocytes, fixed and stained with May Geimsa stain and the differential counts were recorded manually. BALF was evaluated for soluble collagen using a Sircol assay. Lungs were fixed in 10% neutral buffered formalin (NBF) for histopathological analysis. Fibrosis was assessed by histopathological analysis of H&E stained mouse lungs using an Ashcroft scoring system.

[2] = system: DSS-induced colitis in female C57BL/6NTac mice; assay: DSS-induced colitis mouse model of inflammatory bowel disease; format: in vivo; settings: 3% DSS 8 days; peptides 10 mg/kg/day intraperitoneal; CsA 80 mg/kg/day oral; AUC over 8 days
Experimental: The effect of the peptides on inflammatory disease can be assessed by monitoring fecal blood, stool consistency, and body weight loss in a DSS-induced colitis mouse model. Colitis was induced in female C57BL/6NTac mice (9-11 weeks old) by continuous ad libitum oral administration of dextran sodium sulfate (DSS) 3% in sterile drinking water for 8 days. Control (No DSS) mice received sterile water instead of DSS solution. Peptides were administered intraperitoneally once daily at 10 mg/kg/day for 8 days in combination with oral DSS. […] Daily assessments included body weight loss score, fecal blood score, stool consistency score, and composite disease activity index (DAI) score, based on the first three parameters combined. Scores recorded on each day over 8 days were used to calculate area under the curve (AUC) values for each endpoint in individual animals.

[3] = system: 3T3-L1 Mouse Adipocytes; assay: Insulin-dependent effect on free fatty acid levels in cultured mouse adipocytes; format: cell-based; settings: 3 hours
Experimental: The effect of the peptides on fatty acid metabolism was assessed in the absence and presence of insulin using an assay of free fatty acid levels in cultured cells such as mouse adipocytes. Peptides were initially prepared as 10 mM stock in DMSO and used at a final concentration of 10 μM (0.1% DMSO). […] Insulin (0.25 nM) was used as a partial inhibitor and insulin (10 nM) was used as a potent inhibitor of isoproterenol stimulated fatty acid production. Mouse 3T3-L1 cells purchased from ZenBio (Research Triangle Park, N.C.) were seeded at 3,000 cells per well on 96-well plates in Pre-Adipocyte Medium (Zen-Bio) and grown to confluence at 37° C. in a humidified atmosphere of 5% CO2/95% air. Two days after confluence, cells were placed in Adipocyte Differentiation Medium (Zen-Bio) and cultured for three additional days at 37° C. in a humidified atmosphere of 5% CO2/95% air. The culture medium was then partially replaced with Adipocyte Maintenance Medium (Zen-Bio) and the cells maintained at 37° C. in a humidified atmosphere of 5% CO2/95% air with partial medium replacement every other day. At 12 day of differentiation, 96-well cultures were transferred to Adipocyte Maintenance Medium without insulin and placed at 37° C. in a humidified atmosphere of 5% CO2/95% air for two days. Following this incubation period, the medium was removed from 14 day differentiated cultures and replaced with Assay Buffer (Zen-Bio) containing peptides (10 μM), insulin (0.25 nM or 10 nM), isoproterenol (0.1 nM) as appropriate. […] isoproterenol was added to all wells except untreated controls. Insulin at 0.1 nM and 10 nM was added to control wells. Peptides (10 μM) in the absence or presence of insulin (0.25 nM) were added to test wells. Cells in the presence of compounds were placed at 37° C. in a humidified atmosphere of 5% CO2/95% air for 3 hours. At the end of the final 3 h incubation, conditioned assay buffer was removed from each well and place in a fresh 96-well plate for quantitation of free fatty acid content. Free fatty acid concentrations in the assay buffer samples were determined using a Free Fatty Acid Assay kit (Zen-Bio) according to the manufacturer's instructions using a Cytation 3 plate reader at 540 nm (BioTek, Winooski, VD. Absorbance values were corrected for untreated background and expressed as a percent of isoproterenol (0.1 nM) treated control cells for peptides alone or isoproterenol (0.1 nM)+insulin (0.25 nM) for peptides in presence of insulin (0.25 nM). Treatment with isoproterenol […] alone was used as the free fatty acid level stimulatory control. The relative standard deviation of the isoproterenol control was <10%. […] Free fatty acid levels for insulin (10 nM) treatment were <5% of the isoproterenol control value. Free fatty acid levels for insulin (0.25 nM) treatment were 60-80% of the isoproterenol control value.

[4] = system: H4IIE Rat Hepatoma Cells; assay: Insulin-dependent effect on glucose production by cultured rat liver cells; format: cell-based; settings: 24 hour
Experimental: The effect of the peptides on glucose production was assessed in the absence and presence of insulin using an assay of glucose levels in cultured cells such as rat hepatocytes. Peptides were initially prepared as 10 mM stock in DMSO and used at a final concentration of 10 μM (0.1% DMSO). Insulin (800 pM) was used as a partial inhibitor of glucose production. H4-IIE cells purchased from ATCC (Manassas, Va.) were seeded at 100,000 cells/well in standard medium (DMEM/high glucose+10% FBS+1× Glutamax+antibiotics) on 96-well plates and allowed to adhere overnight at 37° C. in a humidified atmosphere of 5% CO2/95% air. Approximately 24 h after seeding, the medium was removed, cells rinsed with glucose free DMEM, and Glucose Production Medium (glucose free DMEM+2 mM sodium pyruvate+10 mM sodium lactate) was added. The cultures were placed at 37° C. in a humidified atmosphere of 5% CO2/95% air overnight. The next morning, the medium was removed and fresh Glucose Production Medium containing compounds was added. Insulin at 800 pM was added to control wells. Peptides (10 μM) in the absence or presence of insulin (800 pM) were added to test wells. Cells in the presence of compounds were placed at 37° C. in a humidified atmosphere of 5% CO2/95% air overnight. After 24 hour incubation, conditioned medium from each well was transferred to a fresh 96-well plate for quantitation of glucose content. Quantitation of glucose levels was determined using an Amplex Red Glucose Assay kit (Abacm; Cambridge, Mass.) according to the manufacturer's instructions using a Cytation 3 plate reader at 570 nm (BioTek, Winooski, Vt.). Absorbance values were expressed as a percent of untreated control cells (maximum glucose production) for peptide alone samples or insulin (800 pM) for peptides in the presence of insulin (800 pM. Glucose levels for insulin (800 pM) treatment were ˜80-90% of the untreated control values. The results are reported in Table 15.

With `COC(=O)c1ccc2c(c1)NC(=O)/C2=C(\Nc1ccc(N(C)C(=O)CN2CCN(C)CC2)cc1)c1ccccc1` [Nintedanib, nintedanib, reference compound] the “Mean (SEM) Leukocyte Count in BALF (Percent of Bleomycin Control)” value ([1]; Day 21, 14 days of treatment) was 62.4 (6.08) Percent, the “Mean (SEM) Lung Weight (Percent of Bleomycin Control)” value ([1]; Day 21, 14 days of treatment) was 75.2 (6.04) Percent and the “Mean (SEM) Percent Body Weight Change from Baseline” value ([1]; Day 21, 14 days of treatment) was −7.95 (6.09) Percent. For the same molecule, the “Mean (SEM) Collagen Content in BALF (Percent of Bleomycin Control)” value ([1]; Sircol assay, Day 21) was 44.0 (6.48) Percent and the “Mean (SEM) Ashcroft Score (Percent of Bleomycin Control)” value ([1]; histopathology, Day 21) was 78.70 (9.72) Percent.
In the case of “RVIRACLGVGLLGDL(dA)GK{PEG12} [SEQ ID NO: 29] (RVIRACLGVGLLGDL[dA]GK(PEG12′))”, the “Mean (SEM) Body Weight Loss Score AUC” value [2] is reported as 2.10 (0.76), the “Mean (SEM) Composite Disease Activity Index (DAI) Score AUC” value [2] is reported as 19.8 (1.99) and the “Mean (SEM) Fecal Blood Score AUC” value [2] is reported as 12.8 (1.04). The “Mean (SEM) Stool Consistency Score AUC” value [2] was 5.05 (0.78).
With “RVIRACLGVGLLGDL(dA)GK{PEG12} [SEQ ID NO: 30] (RVIRACLGVGLLGDL[dA]GK(PEG12′); not fully specified; printed as RVIRACLGVGLLGDL(dA)GK{PEG12}) [possibly the dimer of this chain]” the “Mean (SEM) Body Weight Loss Score AUC” value [2] was 0.95 (0.69), the “Mean (SEM) Composite Disease Activity Index (DAI) Score AUC” value [2] was 14.9 (0.86) and the “Mean (SEM) Fecal Blood Score AUC” value [2] was 9.30 (0.44). For the same molecule, the “Mean (SEM) Stool Consistency Score AUC” value [2] was 4.65 (0.48).
For “RVIRMCLNNGLNGEL(dA)G (RVIRMCLNNGLNGEL[dA]G) [SEQ ID NO: 22]”, the “Free Fatty Acid Levels, MEAN % ISO, +Insulin” value ([3]; peptide 10 μM + insulin 0.25 nM, percent of isoproterenol (0.1 nM)+insulin (0.25 nM)) was 25.3%, the “Free Fatty Acid Levels, MEAN % ISO, −Insulin” value ([3]; peptide 10 μM alone, percent of isoproterenol (0.1 nM) treated control cells) was 93.6% and the “Glucose Levels, MEAN % Control, +Insulin” value ([4]; peptide 10 μM + insulin 800 pM, percent of insulin (800 pM)) was 0.5%. For the same molecule, the “Glucose Levels, MEAN % Control, −Insulin” value ([4]; peptide 10 μM alone, percent of untreated control cells) was -0.4%.
